Square brackets hold non-standard residues; d marks the D form. Peptide text beside a SMILES is read from it.

Data set [1] can be described thus: Ex-vivo stability in mouse plasma, MALDI-TOF MS. It counts as in vitro ADME, C57BL/6 mice. The note with it: 37° C., 24 h. The procedure: The stability of D-AIP in mouse plasma, blood and liver S-9 fraction was investigated to ascertain the metabolic resistance towards proteases and enzymatic activities in these matrices. Whole mouse blood obtained from healthy C57BL/6 male and female mice (6 mice in total) were collected in lithium heparin containing tubes, pooled and stored at 4° C. prior to its use. A fraction of the pooled blood was immediately centrifuged at 1500×g for 10 min at 4° C. to obtain the plasma. The whole blood and plasma samples were spiked with PBS (as control) or AIP (L-AIP, D-AIP or sD-AIP respectively) to make a final concentration of 1 ug/mL and incubated at 37° C. Initial samples were withdrawn to represent t=0 prior to incubation and others were withdrawn 1, 3 and 24 h respectively. Fresh mouse liver also obtained from C57BL/6 male and female mice were pooled, homogenized in 0.15 M Potassium chloride (KCl) and centrifuged at 9000×g. […] The samples were then vigorously mixed for 30 s to facilitate extraction and centrifuged for 10 minutes at 13000 rpm, the supernatant was subjected to sample clean up by C18 ZipTip (EMD Millipore Corporation), the eluates were spotted with CHCA matrix on the ground steel MALDI-TOF target and analyzed with MALDI-TOF MS. […]

Data set [2] is described as follows: Ex-vivo stability in mouse whole blood, MALDI-TOF MS. In kind it is in vitro ADME. As for the experimental part:
The stability of D-AIP in mouse plasma, blood and liver S-9 fraction was investigated to ascertain the metabolic resistance towards proteases and enzymatic activities in these matrices. Whole mouse blood obtained from healthy C57BL/6 male and female mice (6 mice in total) were collected in lithium heparin containing tubes, pooled and stored at 4° C. prior to its use. A fraction of the pooled blood was immediately centrifuged at 1500×g for 10 min at 4° C. to obtain the plasma. The whole blood and plasma samples were spiked with PBS (as control) or AIP (L-AIP, D-AIP or sD-AIP respectively) to make a final concentration of 1 ug/mL and incubated at 37° C. Initial samples were withdrawn to represent t=0 prior to incubation and others were withdrawn 1, 3 and 24 h respectively. Fresh mouse liver also obtained from C57BL/6 male and female mice were pooled, homogenized in 0.15 M Potassium chloride (KCl) and centrifuged at 9000×g. The supernatant represents liver homogenate (S-9) fraction which was mixed with other buffers to formulate the liver S-9 mix as previously described (Kolrep et al., 2017, Toxicol In Vitro, 42:161-170). Liver S-9 mix were spiked with AIP to make a final concentration of 1 μg/mL (L-AIP, D-AIP or sD-AIP respectively) and incubated at 37° C. Just after the addition of NADPH, 100 μL aliquot which represents t=0 samples were withdrawn and others were sampled accordingly at predetermined time points. 400 μL of ice cold MeOH was added to the spiked plasma, blood or liver S-9 fraction respectively, to precipitate the microsomal protein. The samples were then vigorously mixed for 30 s to facilitate extraction and centrifuged for 10 minutes at 13000 rpm, the supernatant was subjected to sample clean up by C18 ZipTip (EMD Millipore Corporation), the eluates were spotted with CHCA matrix on the ground steel MALDI-TOF target and analyzed with MALDI-TOF MS. Applying the t=0 peak area as 100% the intensities of the other time points were compared relatively for interpretation. […]

Data set [3] in a line: MALDI-TOF-MSI brain distribution. In kind it is in vivo, C57BL/6 mice. The settings on record: single oral dose 10 mg/kg, 4 h post-administration, sagittal brain sections. The procedure:
Frozen brains were stored at −80° C. until needed for analysis. Serial sagittal brain sections (10 μm thick) obtained using a cryostat (Leica Microsystems CM1100, Wetzlar, Germany), were thaw mounted onto an indium tin oxide (ITO) coated glass slide (Bruker, Bremen, Germany). Glass slides were removed from deep freeze and immediately transferred to a vacuum desiccator. Following 12 h desiccation time, the slides were scanned using a flatbed scanner (HP LaserJet 3055). The α-cyano-4-hydroxy cinnamic acid (CHCA) matrix (10 mg/mL) was prepared in 50% acetonitrile (ACN) containing 0.1% trifluoroacetic acid (TFA). The matrix solution was sonicated for 10 min and centrifuged at 10 000 rpm for 10 min before transfer to the ImagePrep (Bruker Daltonics). […] A standard solution of D-AIP (1 μg/mL was analyzed using matrix assisted laser desorption ionization time of flight mass spectrometry (MALDI TOF MS) operated both at reflectron and MALDI MS/MS (LIFT) modes respectively with the aid of the UltraflExtreme MALDI TOF/TOF 2 KHz smartbeam laser (Bruker Daltonics, Bremen, Germany) and FlexControl acquisition software ran in positive ion mode. The instrument was calibrated using standard peptide mix spotted with CHCA matrix on the ground steel target (Bruker Daltonics, Bremen, Germany) for 500-1500 m/z. Each spectrum was acquired from 500 laser shots. […]

Data set [4] is described as follows: Tolerability of single oral doses. The settings on record: single oral doses of 10, 30 and 100 mg/kg, female and male mice. In kind it is in vivo, C57BL/6 mice. An excerpt:
Animal care and all animal experiments were undertaken with federal guidelines and approval of the Institutional Animal Ethical Committee of McGill University, Montreal, Canada (Protocol Application Number: 2017-7880) and adequate measures were taken to minimize pain or discomfort. C57BL/6 mice were purchased from Charles River laboratories, a total of 144 healthy (7-9 weeks old) male and female (20-25 g) were grouped accordingly and housed in polycarbonate cages, (three mice per cage per sex) in air-conditioned rooms with a 12 h light/dark cycle. Animals were allowed unlimited access to drinking water and standard mouse chow during the study. Animals (n=3) were orally dosed with D-AIP using an oral gavage at 10, 30 and 100 mg/kg respectively prepared in phosphate buffered saline (PBS). […] Pharmacokinetic parameters area under the curve (AUC), maximum concentration reached (Cmax), time at which maximum concentration is reached (Tmax). elimination rate constant (A), elimination half-life (t1/2), apparent total clearance from plasma after oral administration (CI/F), apparent volume of distribution (Vd) and mean residence time (MRT) were calculated using PKSolver, a freely available menu-driven add-in program for Microsoft Excel written in Visual Basic for Applications (VBA), for solving problems in pharmacokinetics.

On to `C[C@H](O)[C@@H](NC(=O)CNC(=O)[C@H](N)CCCNC(=N)N)C(=O)N[C@H](Cc1ccccc1)C(=O)N[C@H](CCC(=O)O)C(=O)NCC(=O)N[C@H](CCCCN)C(=O)N[C@H](Cc1ccccc1)C(=O)O` [D-AIP] (H-[dR]G[dT][dF][dE]G[dK][dF]-OH; N-terminus and C-terminus assumed), for which the “stability, MALDI-TOF MS signal (941 m/z)” value is listed as “relatively stable over 24 h” in data set [1] and “relatively stable up to 24 h” in data set [2] (37° C., 24 h). Also, the metabolised at 24 h, 1 ug/mL in data set [2] (both sexes, C57BL/6, 24 h incubation, read-out: decrease of signal) was roughly 50%. Besides, the brain distribution result in data set [3] is “distributed across cortex, hippocampus, thalamus and different other brain regions”. Further, the tolerability entry in data set [4] is “well-tolerated with no detectable vital signs of abnormalities”.

For the origin of these results see patent US12613249B2 (THE ROYAL INSTITUTION FOR THE ADVANCEMENT OF LEARNING / …, priority 2019, dated 2026).
